# Reference: ChEMBL document CHEMBL1155237, “Selective inhibitors of the mutant B-Raf pathway: discovery of a potent and orally bioavailable aminoisoquinoline” (J Med Chem, 2009)
# What was measured:
# Design in all cases: scale not given: the % may be the effect or the level left
# [1] = target: Serine/threonine-protein kinase tousled-like 2 (Homo sapiens) (UniProt Q86UE8); test: Inhibition of TLK2 assessed as enzyme activity at 1 uM relative to untreated control
# [2] = target: Ephrin type-A receptor 1 (Homo sapiens) (UniProt P21709); test: Inhibition of EPHA1 assessed as enzyme activity at 1 uM relative to untreated control
# [3] = target: MAP kinase-activated protein kinase 2 (Homo sapiens) (UniProt P49137); test: Inhibition of MAPKAPK2 assessed as enzyme activity at 1 uM relative to untreated control
# [4] = system: Epidermal growth factor receptor (Homo sapiens), P00533 [G719C]; test: Inhibition of EGFR G719C mutant assessed as enzyme activity at 1 uM relative to untreated control; type: protein assay
# [5] = target: Bone morphogenetic protein receptor type-2 (Homo sapiens) (UniProt Q13873); test: Inhibition of BMPR2 assessed as enzyme activity at 1 uM relative to untreated control
# [6] = target: Dual specificity mitogen-activated protein kinase kinase 6 (Homo sapiens) (UniProt P52564); test: Inhibition of MEK6 assessed as enzyme activity at 1 uM relative to untreated control
# [7] = target: Mitogen-activated protein kinase 6 (Homo sapiens) (UniProt Q16659); test: Inhibition of ERK3 assessed as enzyme activity at 1 uM relative to untreated control
# [8] = system: Tyrosine-protein kinase ABL1 (Homo sapiens), P00519 [M351T]; test: Inhibition of ABL1 M351T mutant assessed as enzyme activity at 1 uM relative to untreated control
# [9] = system: Tyrosine-protein kinase ABL1 (Homo sapiens), P00519 [F317I]; test: Inhibition of ABL1 F317I mutant assessed as enzyme activity at 1 uM relative to untreated control
# [10] = target: SRSF protein kinase 1 (Homo sapiens) (UniProt Q96SB4); test: Inhibition of SRPK1 assessed as enzyme activity at 1 uM relative to untreated control
# [11] = target: Calcium/calmodulin-dependent protein kinase type IV (Homo sapiens) (UniProt Q16566); test: Inhibition of CAMK4 assessed as enzyme activity at 1 uM relative to untreated control
# [12] = target: Ephrin type-A receptor 2 (Homo sapiens) (UniProt P29317); test: Inhibition of EPHA2 assessed as enzyme activity at 1 uM relative to untreated control
# [13] = target: Cyclin-G-associated kinase (Homo sapiens) (UniProt O14976); test: Inhibition of GAK assessed as enzyme activity at 1 uM relative to untreated control
# [14] = target: Serine/threonine-protein kinase Nek2 (Homo sapiens) (UniProt P51955); test: Inhibition of NEK2 assessed as enzyme activity at 1 uM relative to untreated control
# [15] = target: Ephrin type-A receptor 5 (Homo sapiens) (UniProt P54756); test: Inhibition of EPHA5 assessed as enzyme activity at 1 uM relative to untreated control
# [16] = target: Cyclin-dependent kinase 18 (Homo sapiens) (UniProt Q07002); test: Inhibition of PCTK3 assessed as enzyme activity at 1 uM relative to untreated control
# [17] = target: Mitogen-activated protein kinase 9 (Homo sapiens) (UniProt P45984); test: Inhibition of JNK2 assessed as enzyme activity at 1 uM relative to untreated control
# [18] = system: Epidermal growth factor receptor (Homo sapiens), P00533 [L861Q]; test: Inhibition of EGFR L861Q mutant assessed as enzyme activity at 1 uM relative to untreated control; type: protein assay
# [19] = target: AP2-associated protein kinase 1 (Homo sapiens) (UniProt Q2M2I8); test: Inhibition of AAK1 assessed as enzyme activity at 1 uM relative to untreated control
# [20] = target: Tyrosine-protein kinase JAK1 (Homo sapiens) (UniProt P23458); test: Inhibition of JAK1 kinase domain 2 assessed as enzyme activity at 1 uM relative to untreated control
# [21] = target: Serine/threonine-protein kinase 16 (Homo sapiens) (UniProt O75716); test: Inhibition of STK16 assessed as enzyme activity at 1 uM relative to untreated control
# [22] = target: Tyrosine-protein kinase ZAP-70 (Homo sapiens) (UniProt P43403); test: Inhibition of ZAP70 assessed as enzyme activity at 1 uM relative to untreated control
# [23] = target: Serine/threonine-protein kinase PAK 3 (Homo sapiens) (UniProt O75914); test: Inhibition of PAK3 assessed as enzyme activity at 1 uM relative to untreated control
# [24] = target: Serine/threonine-protein kinase LATS2 (Homo sapiens) (UniProt Q9NRM7); test: Inhibition of LATS2 assessed as enzyme activity at 1 uM relative to untreated control
# [25] = target: MAP/microtubule affinity-regulating kinase 3 (Homo sapiens) (UniProt P27448); test: Inhibition of MARK3 assessed as enzyme activity at 1 uM relative to untreated control
# [26] = target: Ribosomal protein S6 kinase alpha-4 (Homo sapiens) (UniProt O75676); test: Inhibition of RPS6KA4 kinase domain 1 assessed as enzyme activity at 1 uM relative to untreated control
# [27] = target: Mitogen-activated protein kinase 4 (Homo sapiens) (UniProt P31152); test: Inhibition of ERK4 assessed as enzyme activity at 1 uM relative to untreated control
# [28] = target: Serine/threonine-protein kinase DCLK3 (Homo sapiens) (UniProt Q9C098); test: Inhibition of DCAMKL3 assessed as enzyme activity at 1 uM relative to untreated control
# [29] = target: Insulin-like growth factor 1 receptor (Homo sapiens) (UniProt P08069); test: Inhibition of IGF1R assessed as enzyme activity at 1 uM relative to untreated control
# [30] = target: Mitogen-activated protein kinase 11 (Homo sapiens) (UniProt Q15759); test: Inhibition of p38beta assessed as enzyme activity at 1 uM relative to untreated control
# [31] = system: Phosphatidylinositol 4,5-bisphosphate 3-kinase catalytic subunit alpha isoform (Homo sapiens), P42336 [E545K]; test: Inhibition of PIK3CA E545K mutant assessed as enzyme activity at 1 uM relative to untreated control
# [32] = target: Protein-tyrosine kinase 2-beta (Homo sapiens) (UniProt Q14289); test: Inhibition of PTK2B assessed as enzyme activity at 1 uM relative to untreated control
# [33] = target: Myosin-IIIb (Homo sapiens) (UniProt Q8WXR4); test: Inhibition of MYO3B assessed as enzyme activity at 1 uM relative to untreated control
# [34] = target: Mitogen-activated protein kinase kinase kinase 4 (Homo sapiens) (UniProt Q9Y6R4); test: Inhibition of MAP3K4 assessed as enzyme activity at 1 uM relative to untreated control
# [35] = target: Cyclin-dependent kinase 17 (Homo sapiens) (UniProt Q00537); test: Inhibition of PCTK2 assessed as enzyme activity at 1 uM relative to untreated control
# [36] = target: Non-receptor tyrosine-protein kinase TYK2 (Homo sapiens) (UniProt P29597); test: Inhibition of TYK2 kinase domain 1 assessed as enzyme activity at 1 uM relative to untreated control
# [37] = target: Casein kinase I isoform epsilon (Homo sapiens) (UniProt P49674); test: Inhibition of CSNK1E assessed as enzyme activity at 1 uM relative to untreated control
# Chain of Tyrosine-protein kinase JAK1 (Homo sapiens) (P23458 whole entry, the tested form may be a part): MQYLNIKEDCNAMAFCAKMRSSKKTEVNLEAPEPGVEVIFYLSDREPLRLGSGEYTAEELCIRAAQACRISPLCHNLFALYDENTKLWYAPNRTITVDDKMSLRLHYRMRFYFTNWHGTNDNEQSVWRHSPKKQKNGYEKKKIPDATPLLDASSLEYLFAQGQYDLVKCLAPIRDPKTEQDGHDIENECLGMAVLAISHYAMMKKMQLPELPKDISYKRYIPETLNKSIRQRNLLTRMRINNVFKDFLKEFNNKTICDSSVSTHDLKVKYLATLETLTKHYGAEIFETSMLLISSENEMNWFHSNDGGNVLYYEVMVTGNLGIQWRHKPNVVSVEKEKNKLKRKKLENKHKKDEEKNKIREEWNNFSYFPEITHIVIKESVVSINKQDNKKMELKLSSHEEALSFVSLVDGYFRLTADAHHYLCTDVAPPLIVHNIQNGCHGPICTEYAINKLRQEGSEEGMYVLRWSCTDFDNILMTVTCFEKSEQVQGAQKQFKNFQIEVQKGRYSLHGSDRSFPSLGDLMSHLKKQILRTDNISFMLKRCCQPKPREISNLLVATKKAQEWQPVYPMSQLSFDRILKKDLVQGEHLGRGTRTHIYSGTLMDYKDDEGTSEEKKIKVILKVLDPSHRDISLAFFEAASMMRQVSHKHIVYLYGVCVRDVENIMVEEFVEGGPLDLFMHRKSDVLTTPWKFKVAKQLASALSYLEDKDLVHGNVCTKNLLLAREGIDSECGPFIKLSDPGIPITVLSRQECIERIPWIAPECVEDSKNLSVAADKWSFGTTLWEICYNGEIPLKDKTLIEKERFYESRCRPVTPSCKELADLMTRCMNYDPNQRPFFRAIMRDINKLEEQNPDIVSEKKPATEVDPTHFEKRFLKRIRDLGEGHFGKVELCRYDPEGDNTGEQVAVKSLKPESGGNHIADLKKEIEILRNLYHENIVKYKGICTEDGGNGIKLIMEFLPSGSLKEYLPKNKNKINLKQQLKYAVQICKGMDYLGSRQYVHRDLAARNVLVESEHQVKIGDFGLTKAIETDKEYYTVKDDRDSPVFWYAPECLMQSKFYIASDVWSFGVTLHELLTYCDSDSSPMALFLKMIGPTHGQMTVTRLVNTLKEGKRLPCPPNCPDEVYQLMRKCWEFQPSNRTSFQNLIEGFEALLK
# Chain of Cyclin-G-associated kinase (Homo sapiens) (O14976 whole entry): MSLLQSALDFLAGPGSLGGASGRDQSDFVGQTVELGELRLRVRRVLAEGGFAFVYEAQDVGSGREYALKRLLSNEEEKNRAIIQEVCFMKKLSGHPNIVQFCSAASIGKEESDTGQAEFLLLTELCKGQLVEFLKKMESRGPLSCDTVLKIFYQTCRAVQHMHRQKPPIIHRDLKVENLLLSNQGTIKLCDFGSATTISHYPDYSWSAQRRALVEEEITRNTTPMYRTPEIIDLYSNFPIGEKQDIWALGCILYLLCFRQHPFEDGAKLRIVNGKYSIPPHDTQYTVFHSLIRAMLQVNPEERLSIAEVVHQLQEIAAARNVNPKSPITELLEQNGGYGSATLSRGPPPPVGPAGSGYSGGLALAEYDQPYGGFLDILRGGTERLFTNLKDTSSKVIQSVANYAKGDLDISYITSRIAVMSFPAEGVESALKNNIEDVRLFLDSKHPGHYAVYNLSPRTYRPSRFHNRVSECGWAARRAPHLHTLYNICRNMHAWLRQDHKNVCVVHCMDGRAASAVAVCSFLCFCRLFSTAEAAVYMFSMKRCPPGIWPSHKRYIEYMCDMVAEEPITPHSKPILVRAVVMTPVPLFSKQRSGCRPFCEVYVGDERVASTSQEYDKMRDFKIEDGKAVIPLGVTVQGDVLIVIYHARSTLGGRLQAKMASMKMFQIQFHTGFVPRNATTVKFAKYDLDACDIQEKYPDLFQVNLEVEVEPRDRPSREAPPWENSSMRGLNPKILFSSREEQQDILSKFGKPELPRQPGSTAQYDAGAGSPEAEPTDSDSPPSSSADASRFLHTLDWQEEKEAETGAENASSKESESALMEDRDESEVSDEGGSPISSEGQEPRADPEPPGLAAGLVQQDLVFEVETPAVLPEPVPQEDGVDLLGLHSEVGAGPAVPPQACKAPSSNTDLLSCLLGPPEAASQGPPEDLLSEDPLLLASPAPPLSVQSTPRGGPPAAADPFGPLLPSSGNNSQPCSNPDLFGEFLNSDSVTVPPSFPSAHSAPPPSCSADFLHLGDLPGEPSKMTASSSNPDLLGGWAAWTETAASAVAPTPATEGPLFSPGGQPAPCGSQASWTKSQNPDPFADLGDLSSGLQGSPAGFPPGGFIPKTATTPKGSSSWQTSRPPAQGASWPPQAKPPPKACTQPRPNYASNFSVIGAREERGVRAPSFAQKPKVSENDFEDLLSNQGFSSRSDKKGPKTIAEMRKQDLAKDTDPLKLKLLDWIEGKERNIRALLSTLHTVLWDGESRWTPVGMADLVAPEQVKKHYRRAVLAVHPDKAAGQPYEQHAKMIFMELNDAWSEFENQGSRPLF
# Chain of Serine/threonine-protein kinase LATS2 (Homo sapiens) (Q9NRM7 whole entry): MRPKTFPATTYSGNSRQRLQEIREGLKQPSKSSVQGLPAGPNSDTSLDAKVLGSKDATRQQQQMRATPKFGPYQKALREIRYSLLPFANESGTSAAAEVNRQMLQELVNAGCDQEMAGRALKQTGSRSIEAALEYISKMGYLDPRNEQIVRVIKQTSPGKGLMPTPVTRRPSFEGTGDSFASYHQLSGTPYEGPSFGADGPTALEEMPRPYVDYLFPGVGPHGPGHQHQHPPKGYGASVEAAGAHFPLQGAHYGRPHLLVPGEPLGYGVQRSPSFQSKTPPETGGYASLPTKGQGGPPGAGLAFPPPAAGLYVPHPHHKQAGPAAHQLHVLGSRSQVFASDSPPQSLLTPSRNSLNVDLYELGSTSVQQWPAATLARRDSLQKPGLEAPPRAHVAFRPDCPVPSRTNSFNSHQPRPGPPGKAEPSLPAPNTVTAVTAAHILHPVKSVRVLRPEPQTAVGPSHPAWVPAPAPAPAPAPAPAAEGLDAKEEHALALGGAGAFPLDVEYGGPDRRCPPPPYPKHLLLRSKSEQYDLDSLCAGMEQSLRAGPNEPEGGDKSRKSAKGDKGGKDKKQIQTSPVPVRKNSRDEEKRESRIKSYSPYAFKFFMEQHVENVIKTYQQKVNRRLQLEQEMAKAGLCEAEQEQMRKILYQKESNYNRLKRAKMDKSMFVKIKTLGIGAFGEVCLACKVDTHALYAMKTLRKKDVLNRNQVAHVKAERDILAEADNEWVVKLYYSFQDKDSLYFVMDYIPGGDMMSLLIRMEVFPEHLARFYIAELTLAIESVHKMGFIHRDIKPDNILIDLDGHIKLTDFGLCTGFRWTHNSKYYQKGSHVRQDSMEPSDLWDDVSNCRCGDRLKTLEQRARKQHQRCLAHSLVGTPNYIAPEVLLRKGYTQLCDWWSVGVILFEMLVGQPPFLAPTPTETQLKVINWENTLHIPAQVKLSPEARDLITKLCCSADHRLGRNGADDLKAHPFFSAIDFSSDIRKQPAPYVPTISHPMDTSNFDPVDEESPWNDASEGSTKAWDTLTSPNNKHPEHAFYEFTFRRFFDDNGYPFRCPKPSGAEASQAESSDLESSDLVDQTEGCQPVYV
# Chain of Myosin-IIIb (Homo sapiens) (Q8WXR4 whole entry): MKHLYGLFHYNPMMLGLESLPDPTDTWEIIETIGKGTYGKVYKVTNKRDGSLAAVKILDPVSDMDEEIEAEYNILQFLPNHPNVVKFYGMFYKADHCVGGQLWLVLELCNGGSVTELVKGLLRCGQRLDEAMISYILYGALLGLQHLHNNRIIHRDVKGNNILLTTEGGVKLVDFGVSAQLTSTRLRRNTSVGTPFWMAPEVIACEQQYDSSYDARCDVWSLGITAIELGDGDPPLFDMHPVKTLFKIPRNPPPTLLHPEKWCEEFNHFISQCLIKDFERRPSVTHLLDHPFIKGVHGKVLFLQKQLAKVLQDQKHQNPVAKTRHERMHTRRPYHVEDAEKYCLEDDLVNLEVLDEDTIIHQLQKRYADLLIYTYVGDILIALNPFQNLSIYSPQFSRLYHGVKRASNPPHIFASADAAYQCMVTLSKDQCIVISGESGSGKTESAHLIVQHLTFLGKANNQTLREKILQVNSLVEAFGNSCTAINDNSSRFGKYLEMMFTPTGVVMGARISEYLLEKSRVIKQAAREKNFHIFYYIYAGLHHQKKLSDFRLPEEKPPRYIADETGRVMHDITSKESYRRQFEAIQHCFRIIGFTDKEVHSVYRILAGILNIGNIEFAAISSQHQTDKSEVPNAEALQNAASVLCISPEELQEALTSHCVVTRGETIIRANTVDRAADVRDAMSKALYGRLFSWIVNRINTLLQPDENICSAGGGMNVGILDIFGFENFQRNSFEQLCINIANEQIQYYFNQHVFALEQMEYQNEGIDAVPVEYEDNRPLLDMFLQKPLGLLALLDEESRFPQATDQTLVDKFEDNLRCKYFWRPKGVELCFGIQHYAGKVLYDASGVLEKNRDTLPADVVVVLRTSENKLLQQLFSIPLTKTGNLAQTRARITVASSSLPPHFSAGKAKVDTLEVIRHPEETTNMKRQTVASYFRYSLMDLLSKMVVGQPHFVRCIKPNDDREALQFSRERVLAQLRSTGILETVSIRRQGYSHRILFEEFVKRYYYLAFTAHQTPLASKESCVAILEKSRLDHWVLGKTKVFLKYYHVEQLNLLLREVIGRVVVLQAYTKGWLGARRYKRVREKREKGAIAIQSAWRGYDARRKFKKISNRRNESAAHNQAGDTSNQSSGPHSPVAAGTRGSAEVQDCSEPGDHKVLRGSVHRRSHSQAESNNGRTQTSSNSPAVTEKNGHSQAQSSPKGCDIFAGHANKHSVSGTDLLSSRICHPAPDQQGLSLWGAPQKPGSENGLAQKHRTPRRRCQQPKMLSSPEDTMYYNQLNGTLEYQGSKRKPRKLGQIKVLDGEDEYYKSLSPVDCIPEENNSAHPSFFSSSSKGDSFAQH
smiles,measurement,setting,value
Cc1ccc2c(Nc3ccc(Cl)cc3)nccc2c1Nc1ncccc1-c1ncnc2[nH]cnc12.Cl.Cl.Cl,Activity,[1],100%
same,Activity,[2],4.6%
same,Activity,[3],100%
same,Activity,[4],92%
same,Activity,[5],100%
same,Activity,[6],96%
same,Activity,[7],98%
same,Activity,[8],45%
same,Activity,[9],86%
same,Activity,[10],100%
same,Activity,[11],96%
same,Activity,[12],2.8%
same,Activity,[13],92%
same,Activity,[14],90%
same,Activity,[15],16%
same,Activity,[16],95%
same,Activity,[17],86%
same,Activity,[18],86%
same,Activity,[19],92%
same,Activity,[20],47%
same,Activity,[21],100%
same,Activity,[22],100%
same,Activity,[23],87%
same,Activity,[24],85%
same,Activity,[25],100%
same,Activity,[26],100%
same,Activity,[27],100%
same,Activity,[28],100%
same,Activity,[29],94%
same,Activity,[30],99%
same,Activity,[31],100%
same,Activity,[32],40%
same,Activity,[33],68%
same,Activity,[34],100%
same,Activity,[35],100%
same,Activity,[36],96%
same,Activity,[37],99%
